Data on 42 molecules can be found in the Kinase Knowledgebase extract (Sharma et al. 2016).

Each structure is given as a SMILES string.

Chain of PIK3CA (human) (P42336 whole entry, looked up): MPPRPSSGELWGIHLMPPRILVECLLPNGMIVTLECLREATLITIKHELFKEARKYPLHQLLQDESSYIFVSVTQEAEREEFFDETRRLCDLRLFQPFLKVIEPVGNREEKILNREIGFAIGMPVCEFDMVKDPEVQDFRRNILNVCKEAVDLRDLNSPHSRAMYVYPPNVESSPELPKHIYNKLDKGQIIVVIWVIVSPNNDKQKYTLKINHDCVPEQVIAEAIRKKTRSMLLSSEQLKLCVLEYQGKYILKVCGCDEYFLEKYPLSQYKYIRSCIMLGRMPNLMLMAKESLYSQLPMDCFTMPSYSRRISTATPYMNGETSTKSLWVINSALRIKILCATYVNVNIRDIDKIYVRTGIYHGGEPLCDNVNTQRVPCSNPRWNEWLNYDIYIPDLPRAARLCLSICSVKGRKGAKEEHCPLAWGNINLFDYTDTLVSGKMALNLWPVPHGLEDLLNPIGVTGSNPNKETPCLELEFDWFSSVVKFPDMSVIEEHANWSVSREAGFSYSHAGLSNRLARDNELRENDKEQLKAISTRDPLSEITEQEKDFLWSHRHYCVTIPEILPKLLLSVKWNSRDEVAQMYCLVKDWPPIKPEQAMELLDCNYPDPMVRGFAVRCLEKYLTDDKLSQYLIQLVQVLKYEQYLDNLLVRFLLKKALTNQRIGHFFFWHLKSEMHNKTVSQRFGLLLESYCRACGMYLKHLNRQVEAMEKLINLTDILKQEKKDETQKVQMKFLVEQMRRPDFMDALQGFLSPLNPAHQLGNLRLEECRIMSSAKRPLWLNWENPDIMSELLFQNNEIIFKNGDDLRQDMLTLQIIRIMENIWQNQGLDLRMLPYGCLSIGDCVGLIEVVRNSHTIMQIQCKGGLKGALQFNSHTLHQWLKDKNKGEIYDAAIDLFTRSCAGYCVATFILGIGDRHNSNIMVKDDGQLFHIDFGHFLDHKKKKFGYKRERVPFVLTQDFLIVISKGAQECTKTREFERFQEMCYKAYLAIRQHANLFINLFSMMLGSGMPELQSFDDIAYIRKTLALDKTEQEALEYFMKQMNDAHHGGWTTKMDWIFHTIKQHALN

One test has as its target PIK3CA (human) (UniProt P42336). The test is described as follows: Assessment of PIK3CA Kinase Activity.
Details: not given
By IC50 is commonly meant the point on the concentration scale where inhibition reaches its midpoint. `COc1cccc(Nc2nc(-c3cccc4[nH]nc(N)c34)nc3c2cnn3C)c1OC` had an IC50 of 11 nM.
Same read-out and setting: for `Cc1nc(N)cc(n1)C2=C(Nc3cc[nH]n3)NC4=N2N=CC=C4` the value was 830 nM; for `NC(=O)[C@@H]1CCCN1CC(=O)N1CCN(c2nc(N3CCOCC3)cc(-n3c(C(F)F)nc4ccccc43)n2)CC1`, 200 nM.
Same read-out and setting: for `NCC(=O)N1CCN(c2cc(N3CCOCC3)nc(-n3c(C(F)F)nc4ccccc43)n2)CC1` the value was 100 nM; for `CCc1ncnc(N2CCC3(CCN(C)CC3)CC2)c1C#Cc1ccc(N)nc1`, 136 nM; for `CS(=O)(=O)Cc1cc(N2CCOCC2)nc(-c2ccc(NC(=O)c3ccno3)cc2)n1`, greater than 100000 nM.
For orientation: Ki means a measure of affinity in units of concentration, obtained from inhibition or displacement. High values mean weaker binding, low ones tighter binding. `Cc1nc(N)nc(-c2cc(Cl)cnc2Nc2cnc(Cl)c(NS(=O)(=O)N(C)C)c2)n1` displayed a Ki of 12 nM.
On the same count and under the same terms, for `NC(=O)[C@@H]1CCCN1C(=O)Nc1nc2ccc(-c3cnc(N)c(C(F)(F)F)c3)cc2s1` the value was 40 nM.
On to `O=C(Nc1ccc(F)cc1)Nc1ccc(-c2nc(N3CCOCC3)nc(N3C4CCC3COC4)n2)cc1`, for which the IC50 was 39 nM.
Regarding `O=C(Nc1cccc(-c2cc(N3CCOCC3)nc(-c3cccc(CO)c3)n2)c1)N1CCNCC1`, the IC50 was 300 nM. Compared with the last molecule, the IC50 is about 7.7-fold higher.
On to `COCCOc1cnc(Nc2cnc(Cl)c(NS(C)(=O)=O)c2)c(-c2nc(C)nc(N)n2)c1`, for which the Ki was found to be 25 nM.
`CCOC(=O)N1CCC(n2ncc3c(N4CCO[C@H](C)C4)nc(-c4ccc(NC(=O)NCCF)cc4)nc32)CC1` gave an IC50 of 4550 nM.
Molecule `OCc1cccc(-c2cc(-n3c(C(F)F)nc4ccccc43)nc(N3CCOCC3)n2)c1` displayed an IC50 of 300 nM.
Same read-out and setting: for `COc1cccc(Nc2nc(-c3cccc4onc(N)c34)nc3c2cnn3C)c1OC` the value was 1.7 nM.
The molecule `Nc1ncc(-c2nc(N3CCOCC3)nc3c2CCN3c2ccc(CN3CCN(CCCCF)CC3)cc2)cn1` gave an IC50 of 20 nM.
The same measure, in the same setting: for `NCC(=O)N1CC=C(c2cc(N3CCOCC3)nc(-n3c(C(F)F)nc4ccccc43)n2)CC1` the value was 100 nM; for `O=C(Nc1cccc(-c2cc(N3CCOCC3)nc(-c3cccc(O)c3)n2)c1)C1CCCNC1` (stereo not given), 100 nM; for `NCC(=O)N1CCN(c2nc(N3CCOCC3)cc(-n3c(C(F)F)nc4ccccc43)n2)CC1`, 100 nM.
In the case of `CCC1(O)CCN(c2ncnc(C)c2C#Cc2ccc(N)nc2)CC1`, the IC50 was found to be 15 nM.
Same read-out and setting: for `CCOC(=O)N1CCC(n2ncc3c(N4CCO[C@H](C)C4)nc(-c4ccc(NC(=O)Nc5ccncc5)cc4)nc32)CC1` the value was 517 nM; for `CCc1ncnc(N2CCC(O)(CC)CC2)c1C#Cc1ccc(N)nc1`, 50 nM.
Same read-out and setting: to `CC(C)(C)COC(=O)NCc1ccc(NC(=O)Nc2ccc(-c3nc(CS(C)(=O)=O)cc(N4CC5CCC(C4)O5)n3)cc2)cc1` belongs 1930 nM; to `CCNC(=O)Nc1ccc(-c2nc(N3CCO[C@H](C)C3)c3cnn(C4CCN(C(=O)OCC)CC4)c3n2)cc1`, 4360 nM; to `CCOC(=O)N1CCC(n2ncc3c(N4CCO[C@@H](C)C4)nc(-c4ccc(NC(=O)Nc5ccncc5)cc4)nc32)CC1`, 18 nM.
The same measure, in the same setting: for `Cc1nc(NCC(=O)N(C)C)cc(-c2c(Nc3ccn(C)n3)nc3cccnn23)n1` the value was 20100 nM.
The molecule `Cc1ncnc(N2CCC(C)(O)CC2)c1C#Cc1ccc(N)nc1` gave an IC50 of 38 nM.
For the molecule `COc1cccc2c1nc(C(F)F)n2-c1nc(N2CCOCC2)cc(N2CCN(C(=O)CN)CC2)n1`, the IC50 came out at 20 nM.
`NC(=O)c1ccc(NC(=O)Nc2ccc(-c3cc(N4CC5CCC(C4)O5)nc(-c4ccc(NC(=O)Nc5ccc(C(N)=O)cc5)cc4)n3)cc2)cc1` returned an IC50 of 44.5 nM.
The same measure, in the same setting: to `Cc1ncnc(N2CCC(=O)CC2)c1C#Cc1ccc(N)nc1` belongs 104 nM; to `NC(=O)[C@@H]1CCCCN1C1CCN(c2nc(N3CCOCC3)cc(-n3c(C(F)F)nc4ccccc43)n2)CC1`, 600 nM; to `CN(C(=O)c1cc2c(s1)-c1ccccc1OC2)c1ccccc1F`, 254 nM.

The next test addresses CDK2 (human) (UniProt P24941). The test can be described thus: Enzyme Assay.
Details: not given
`N#CC1(c2cccc(C(=O)Nc3cc(Oc4ccc5nc(NC(=O)C6CC6)sc5n4)ccc3F)c2Cl)CC1` gave an IC50 of 2700 nM.

For another test, the target named is CDK2 (UniProt P24941). The test can be described thus: Enzyme Assay.
Details: not given
The molecule `Cc1ccc2ncc(C3=C(c4cn5c6c(cccc46)CN(C(=O)N4CCCCC4)CC5)C(=O)NC3=O)n2c1` displayed an IC50 greater than 20000 nM.
On the same count and under the same terms, to `FC(F)(F)c1cnc(Nc2ccc3[nH]cnc3c2)nc1Nc1ccc2[nH]cnc2c1` belongs 19 nM.

Still in this test, the particulars now being: concentration not given here.
As usually defined, the inhibition is the share of the control response that was lost under treatment. Low readings indicate little suppression, high ones strong suppression. `Nc1n[nH]c(N)c1N=Nc1ccc(O)cc1` returned an activity of 31% and an inhibition of 69%.

In another test the target is MAPK14 (human) (UniProt Q16539). The test is described as follows: Enzyme Assay.
Chain of MAPK14 (human) (Q16539 whole entry, looked up): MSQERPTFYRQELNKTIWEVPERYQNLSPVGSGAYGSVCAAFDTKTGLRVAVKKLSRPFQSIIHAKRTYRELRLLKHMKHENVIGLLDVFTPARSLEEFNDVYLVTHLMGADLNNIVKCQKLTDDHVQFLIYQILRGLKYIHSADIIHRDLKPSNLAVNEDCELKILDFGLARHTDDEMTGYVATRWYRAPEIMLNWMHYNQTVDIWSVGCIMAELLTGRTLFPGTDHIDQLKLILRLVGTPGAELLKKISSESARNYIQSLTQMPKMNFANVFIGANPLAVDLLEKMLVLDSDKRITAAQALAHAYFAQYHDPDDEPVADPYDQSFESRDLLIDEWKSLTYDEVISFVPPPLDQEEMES
Details: not given
As for `N#CC1(c2cccc(C(=O)Nc3cc(Oc4ccc5nc(NC(=O)C6CC6)sc5n4)ccc3F)c2Cl)CC1`, the IC50 stood at 1100 nM.
The same measure, in the same setting: for `O=C(NCCN1CCOCC1)c1cccc(-n2ncc3cc(Nc4ccccc4)cnc32)c1` the value was 140 nM.
On the same count and under the same terms, to `Nc1c(C(=O)c2ccc(F)cc2F)ccc(=O)n1-c1c(F)cccc1F` belongs 2 nM.

In another test the target is MAPK14 (UniProt Q16539). The test can be described thus: Inhibition of MAPK14 Kinase Activity.
Chain of MAPK14 (Q16539 whole entry, looked up): as above
Details: not given
`CCOc1cc2cnc(NC(CCOC)CCOC)nc2[nH]c1=O` showed an IC50 of 7700 nM. This lies in the single-digit micromolar range.
The same measure, in the same setting: to `CSc1nc(-c2ccnc(NC(C)c3ccccc3)c2)c(-c2ccc(F)cc2)n1C` (stereo not given) belongs 27000 nM; to `CC(C)(CO)Nc1nccc(CCc2c[nH]c3ccc(N)cc23)n1`, 1500 nM; to `CS(=O)(=O)N1CCC(Nc2ncc3cc(Oc4ccc(F)cc4F)ccc3n2)CC1`, less than 1 nM.
Still for that read-out and setting: to `CC(C)Nc1ncc2cc(Oc3ccc(F)cc3F)ccc2n1` belongs less than 30 nM; to `Cc1ccc2ncc(C3=C(c4cn5c6c(cccc46)CN(C(=O)N4CCCCC4)CC5)C(=O)NC3=O)n2c1`, greater than 20000 nM.
